Experimental data taken from ChEMBL document CHEMBL2331139, “Discovery of BAF312 (Siponimod), a Potent and Selective S1P Receptor Modulator” (ACS Med Chem Lett, 2013).
The source made the active and inactive calls. No cut-off for these calls is given here.

Columns and labels:
[1] = target: T1, Sphingosine 1-phosphate receptor 1 (Homo sapiens, UniProt P21453); test: Agonist activity at human S1P1 receptor transfected in CHO cells incubated for 10 to 15 mins prior to GTPgamma35S addition measured after 120 mins by GTPgamma35S binding assay; type: functional, cell-based
[2] = target: T2, Sphingosine 1-phosphate receptor 3 (Homo sapiens, UniProt Q99500); test: Agonist activity at human S1P3 receptor transfected in CHO cells at 10 uM incubated for 10 to 15 mins prior to GTPgamma35S addition measured after 120 mins by GTPgamma35S binding assay relative to S1P; type: functional, cell-based
[3] = target: T1, Sphingosine 1-phosphate receptor 1; test: Agonist activity at human S1P1 receptor transfected in CHO cells at 10 uM incubated for 10 to 15 mins prior to GTPgamma35S addition measured after 120 mins by GTPgamma35S binding assay relative to S1P; type: functional, cell-based
[4] = target: T2, Sphingosine 1-phosphate receptor 3; test: Agonist activity at human S1P3 receptor transfected in CHO cells incubated for 10 to 15 mins prior to GTPgamma35S addition measured after 120 mins by GTPgamma35S binding assay; type: functional, cell-based
Rattus norvegicus [5] = test: Reduction in peripheral lymphocyte count in po dosed Lewis rat after 6 hrs; type: functional
hERG (KCNH2) = hERG (KCNH2) (Homo sapiens, UniProt Q12809); test: Inhibition of human ERG channel at 25 uM
[6] = Tmax in Lewis rat at 1 mg/kg, po after 8 hrs; type: ADME, organism-based; parameters: dose 1 mg/kg, route oral; settings: in vivo
Rattus norvegicus [7] = test: Reduction in peripheral lymphocyte count in Lewis rat at 1 mg/kg, po after 48 hrs; type: functional, organism-based; parameters: dose 1 mg/kg
Rattus norvegicus [8] = test: Reduction in peripheral lymphocyte count in Lewis rat at 1 mg/kg, po after 8 hrs; type: functional; parameters: scale not given: the % may be the effect or the level left
[9] = Terminal half life in rat; type: ADME, organism-based; settings: in vivo, read-out: beta t1/2 (converted)
[10] = Terminal half life in monkey; type: ADME, organism-based, Macaca mulatta; settings: rhesus monkey, in vivo; read-out: beta t1/2 (converted)
[11] = Volume of distribution at steady state in monkey; type: ADME, organism-based, Macaca mulatta; settings: rhesus monkey, in vivo; read-out: Vdss
[12] = Volume of distribution at steady state in rat; type: ADME, organism-based; settings: in vivo, read-out: Vdss
[13] = Clearance in monkey; type: ADME, organism-based, Macaca mulatta; settings: rhesus monkey, in vivo
[14] = Clearance in rat; type: ADME, organism-based; settings: in vivo
[15] = Oral bioavailability in monkey; type: ADME, organism-based, Macaca mulatta; settings: rhesus monkey, in vivo
[16] = Oral bioavailability in rat; type: ADME, organism-based; settings: in vivo
[17] = Drug absorption in rat; type: ADME, organism-based; settings: in vivo, read-out: Fabs
Rattus norvegicus [18] = organism: Rattus norvegicus; test: Drug excretion in rat; type: ADME, organism-based; settings: in vivo
Caco-2 = test: Permeability across human Caco2 cells at 0.5 to 50 uM; type: ADME, cell-based; settings: caco-2, 50 µM
[19] = Plasma protein binding in monkey; type: ADME, cell-free, Macaca mulatta; settings: rhesus monkey, read-out: PPB
[20] = Plasma protein binding in human; type: ADME, cell-free; settings: read-out: PPB
[21] = Plasma protein binding in dog; type: ADME, cell-free, Canis lupus familiaris; settings: read-out: PPB
[22] = Plasma protein binding in rat; type: ADME, cell-free; settings: read-out: PPB
Mus musculus = test: Volume of distribution at steady state in po dosed mouse; type: ADME, organism-based; settings: in vivo
[23] = Elimination half life in po dosed mouse; type: ADME, organism-based; settings: in vivo, read-out: beta t1/2

T1 sequence (P21453 whole entry): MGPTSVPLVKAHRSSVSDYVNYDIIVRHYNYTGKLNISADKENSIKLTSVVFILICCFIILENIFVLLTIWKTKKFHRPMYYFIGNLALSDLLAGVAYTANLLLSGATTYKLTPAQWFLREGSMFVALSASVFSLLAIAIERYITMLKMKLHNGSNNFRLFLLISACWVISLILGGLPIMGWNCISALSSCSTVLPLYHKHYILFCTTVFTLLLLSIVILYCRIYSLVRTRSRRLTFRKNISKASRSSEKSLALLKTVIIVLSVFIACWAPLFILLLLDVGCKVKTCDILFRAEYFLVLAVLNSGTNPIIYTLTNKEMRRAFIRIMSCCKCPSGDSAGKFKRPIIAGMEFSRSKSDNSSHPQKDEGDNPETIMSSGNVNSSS
T2 sequence (Q99500 whole entry): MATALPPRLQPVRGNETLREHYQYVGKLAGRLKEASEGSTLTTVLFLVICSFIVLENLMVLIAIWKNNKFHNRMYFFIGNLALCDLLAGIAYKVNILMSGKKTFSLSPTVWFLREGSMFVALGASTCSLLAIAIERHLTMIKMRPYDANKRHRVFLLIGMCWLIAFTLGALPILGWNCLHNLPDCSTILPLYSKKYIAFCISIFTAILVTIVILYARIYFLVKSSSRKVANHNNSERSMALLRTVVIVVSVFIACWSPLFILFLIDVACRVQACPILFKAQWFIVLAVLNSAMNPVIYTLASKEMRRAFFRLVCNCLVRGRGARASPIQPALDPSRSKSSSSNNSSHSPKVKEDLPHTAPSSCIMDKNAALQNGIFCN
hERG (KCNH2), sequence (Q12809 whole entry): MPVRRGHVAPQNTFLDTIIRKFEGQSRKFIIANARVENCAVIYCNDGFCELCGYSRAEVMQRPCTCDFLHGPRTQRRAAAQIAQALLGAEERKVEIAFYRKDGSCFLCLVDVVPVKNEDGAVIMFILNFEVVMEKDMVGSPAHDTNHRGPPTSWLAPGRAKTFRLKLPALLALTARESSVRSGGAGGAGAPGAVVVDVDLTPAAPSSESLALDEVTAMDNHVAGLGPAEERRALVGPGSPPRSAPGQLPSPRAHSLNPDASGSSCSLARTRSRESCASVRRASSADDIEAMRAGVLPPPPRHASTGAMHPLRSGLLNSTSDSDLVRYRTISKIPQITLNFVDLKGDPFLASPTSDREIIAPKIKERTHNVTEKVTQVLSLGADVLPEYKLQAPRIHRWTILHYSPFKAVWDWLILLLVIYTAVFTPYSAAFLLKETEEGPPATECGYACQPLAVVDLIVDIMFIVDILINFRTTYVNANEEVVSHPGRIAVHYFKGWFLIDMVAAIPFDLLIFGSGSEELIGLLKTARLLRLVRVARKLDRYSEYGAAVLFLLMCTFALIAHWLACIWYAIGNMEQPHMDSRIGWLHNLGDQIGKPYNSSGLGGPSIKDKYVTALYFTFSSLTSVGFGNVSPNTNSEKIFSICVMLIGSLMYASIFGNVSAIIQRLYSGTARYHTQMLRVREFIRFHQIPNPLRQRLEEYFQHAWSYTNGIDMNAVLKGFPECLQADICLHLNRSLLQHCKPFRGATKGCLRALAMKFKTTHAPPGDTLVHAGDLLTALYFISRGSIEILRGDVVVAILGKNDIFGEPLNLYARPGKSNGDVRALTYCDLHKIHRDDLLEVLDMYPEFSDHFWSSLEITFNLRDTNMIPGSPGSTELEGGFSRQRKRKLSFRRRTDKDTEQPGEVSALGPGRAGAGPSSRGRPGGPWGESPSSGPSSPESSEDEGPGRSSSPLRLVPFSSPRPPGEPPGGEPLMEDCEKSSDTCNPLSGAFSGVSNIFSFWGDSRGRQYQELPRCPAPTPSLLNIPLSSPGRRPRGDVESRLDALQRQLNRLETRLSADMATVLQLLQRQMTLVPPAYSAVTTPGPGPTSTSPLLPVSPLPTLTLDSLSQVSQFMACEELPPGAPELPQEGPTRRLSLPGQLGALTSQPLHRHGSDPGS

SMILES	EC50 [1]	Emax [2]	Emax [3]	EC50 [4]	further results
C/C(=N\OCc1ccc(-c2ccc(F)c(F)c2)c(C(F)(F)F)c1)c1ccc(CNCCC(=O)O)cc1	16 nM				
C/C(=N\OCc1ccc(C2CCCCC2)c(C(F)(F)F)c1)c1ccc(CNCCC(=O)O)c(Br)c1	0.4 nM	65%	85%	1100 nM	
C/C(=N\OCc1ccc(C2CCCCC2)c(C(F)(F)F)c1)c1ccc(CNCCC(=O)O)o1	17 nM	62%	100%	2500 nM	
COc1ccccc1-c1ccc(CO/N=C(\C)c2ccc(CNCCC(=O)O)cc2)cc1	1400 nM				
C/C(=N\OCc1ccc(C2CCCCC2)c(C(F)(F)F)c1)c1ccc(CNCCC(=O)O)s1	2.2 nM	79%	104%	4000 nM	
CCc1cc(/C(C)=N/OCc2ccc(C3CCCCC3)c(C(F)(F)F)c2)ccc1CN1CC(C(=O)O)C1 [SIPONIMOD]		55%	91%	5000 nM	ED50 (Rattus norvegicus [5]): 0.14 mg/kg; inhibition at 25 µM (hERG (KCNH2)): < 10%; Tmax [6]: 8 h; Activity (Rattus norvegicus [7]): inactive; Activity (Rattus norvegicus [8]): 88%; half-life [9]: 6 h; half-life [10]: 19 h; Vd [11]: 2.12 L/kg; Vd [12]: 2.15 L/kg; clearance [13]: 1.63 mL/min/kg; clearance [14]: 6 mL/min/kg; bioavailability [15]: 71%; bioavailability [16]: 50%; Fa [17]: 58%; Drug excretion (Rattus norvegicus [18]): Not Active; permeability (Caco-2): permeable; fraction unbound [19]: < 0.001; fraction unbound [20]: < 0.001; fraction unbound [21]: < 0.001; fraction unbound [22]: < 0.001
C/C(=N\OCc1ccc(-c2cccs2)c(C(F)(F)F)c1)c1ccc(CNCCC(=O)O)cc1	18 nM			5900 nM	
C/C(=N\OCc1ccc(-c2ccco2)c(C(F)(F)F)c1)c1ccc(CNCCC(=O)O)cc1	15 nM			3000 nM	
C/C(=N\OCc1ccc(-c2ccc(C(F)(F)F)cc2)cc1)c1ccc(CNCCC(=O)O)cc1	10000 nM				
C/C(=N\OCc1ccc(C2CCCCC2)c(C(F)(F)F)c1)c1ccc(CNCCC(=O)O)nc1	2.6 nM	44%	86%	4300 nM	
C/C(=N\OCc1ccc(-c2ccccc2)cc1)c1ccc(CNCCC(=O)O)cc1	300 nM				
C/C(=N\OCc1ccc(-c2ccc(F)cc2)c(C(F)(F)F)c1)c1ccc(CNCCC(=O)O)cc1	11 nM				
C/C(=N\OCc1ccc(-c2ccccc2F)c(C(F)(F)F)c1)c1ccc(CNCCC(=O)O)cc1	8 nM				
C/C(=N\OCc1ccc(C2CCCCC2)c(C(F)(F)F)c1)c1ccc(CNCCC(=O)O)c(C2CC2)c1	0.4 nM	63%	98%	1300 nM	
C/C(=N\OCc1ccc(-c2ccccc2)cc1C(F)(F)F)c1ccc(CNCCC(=O)O)cc1	10000 nM		inactive		
C/C(=N\OCc1ccc(-c2ccccc2)cc1)c1ccc(CCC(N)(CO)CO)cc1					Vdss (Mus musculus): 36.9 L/kg; half-life [23]: > 30 h

SMILES	EC50 [1]	Emax [2]	Emax [3]	EC50 [4]	further results
C/C(=N\OCc1ccc(-c2ccccc2)c(C(F)(F)F)c1)c1ccc(CNCCC(=O)O)cc1	9 nM				
CCc1cc(/C(C)=N/OCc2ccc(C3CCCCC3)c(C(F)(F)F)c2)ccc1CNCCC(=O)O	0.7 nM	43%	92%	7200 nM	
COc1ccc(-c2ccc(CO/N=C(\C)c3ccc(CNCCC(=O)O)cc3)cc2)cc1	1500 nM				
C/C(=N\OCc1ccc(-c2ccccc2)cc1F)c1ccc(CNCCC(=O)O)cc1	120 nM				
C/C(=N\OCc1ccc(-c2ccc(C)cc2)c(C(F)(F)F)c1)c1ccc(CNCCC(=O)O)cc1	94 nM				
C/C(=N\OCc1ccc(-c2ccc(C)cc2)cc1)c1ccc(CNCCC(=O)O)cc1	640 nM				
C/C(=N\OCc1ccc(-c2ccccc2C(F)(F)F)cc1)c1ccc(CNCCC(=O)O)cc1	1700 nM				
C/C(=N\OCc1ccc(C2CCCCC2)c(C(F)(F)F)c1)c1ccc(CNCCC(=O)O)cn1	1.4 nM	53%	92%	2600 nM	
C/C(=N\OCc1ccc(C2CCCCC2)c(C(F)(F)F)c1)c1ccc(CNCCC(=O)O)c(C)c1	2 nM	159%	94%	5900 nM	
C/C(=N\OCc1ccc(C2CCCCC2)c(C(F)(F)F)c1)c1ccc(CNCCC(=O)O)c(F)c1	0.3 nM	61%	105%	2200 nM	
C/C(=N\OCc1ccc(C2CCCCC2)c(C(F)(F)F)c1)c1ccc(CNCCC(=O)O)cc1	0.3 nM			1500 nM	
C/C(=N\OCc1ccc(C2CCCCC2)c(C(F)(F)F)c1)c1ccc(CN2CC(C(=O)O)C2)c(C)c1	1.6 nM	127%	80%	3200 nM	
C/C(=N\OCc1ccc(-c2ccc(F)cc2)cc1)c1ccc(CNCCC(=O)O)cc1	210 nM				
C/C(=N\OCc1ccc(C2CCCC2)c(C(F)(F)F)c1)c1ccc(CNCCC(=O)O)cc1	0.6 nM			1600 nM	
C/C(=N\OCc1ccc(C2CCCCC2)c(C(F)(F)F)c1)c1ccc(CNCCC(=O)O)c(Cl)c1	0.6 nM	50%	106%	1900 nM	
C/C(=N\OCc1ccc(-c2ccccc2)c(F)c1)c1ccc(CNCCC(=O)O)cc1	61 nM				
